Measured values from patent publication EP0702683B1, “06-SUBSTITUTED GUANINE DERIVATIVES, A PROCESS FOR THEIR PREPARATION AND THEIR USE IN TREATING TUMOUR CELLS” (Cancer Research Technology Limited, priority 1993, dated 1994).
Like-named read-outs stand apart in the source and are kept apart here.

Experiments:
A375M cells = test: Sensitization of A375M cells to BCNU (MTT assay); type: cell-based, human; settings: for A375M sensitization (D50.^C/D50.^I) 0.5uM: inactivator 0.5uM 2 hours before; for A375M sensitization (D50.^C/D50.^I) 5.0uM: inactivator 5.0uM 2 hours before
Procedure: Sensitization of A375M cells to the cytotoxic effects of BCNU was analysed by MTT assay ^24 differing from the XTT assay described above as follows. […] After 6 days MTT solution (4mg/ml) was added and cells incubated for 3 hours at 37°C. Medium was aspirated and the resulting purple formazan crystals were solubilised in DMSO (120μl) and cell viability was quantified by measuring absorption at 540nm using a microtitre plate reader.

[1] = tested on: Chinese hamster V79 cells; test: Growth inhibition of V79 cells by inactivator alone; type: cell-based
Procedure: (§1) In order to assess the effects on cell growth alone, Xeroderma pigmentosum cells and Chinese Hamster V79 cells were exposed to increasing concentrations (up to 600µM) of selected inactivators for 2h at 37°. In some cases, the inactivators were allowed to undergo hydrolysis at 37°C for 20 hours and then added to […] in order to assess the extent to which the decomposition products of the agents might inhibit cell growth. After 6 days the extent of cell growth was determined as described above.

Raji cells = test: Sensitization of Raji cells to BCNU (XTT assay); type: cell-based, human; settings: for Raji sensitization (D90.^C/D90.^I) 1.0µM / Raji sensitization (D90.^C/D90.^I) O.1µM: BCNU, 2 hour pretreatment; for Raji sensitization (D90.^C/D90.^I) 1.0µM: inactivator 1.0µM; for Raji sensitization (D90.^C/D90.^I) O.1µM: inactivator O.1µM; for sensitizing Raji cells to the growth inhibitory effects of BCNU, compared with BeG: Figure 2, in words
Procedure: Following a 2 hour incubation at 37°C, medium containing either increasing doses of BCNU, temozolomide or equivalent vehicle was added and the cells allowed to grow for 6 days. At this time XTT solution was added and the cells incubated for a further 4 hours at 37°C. The resulting red/orange formazan reaction product was quantified by measuring absorption at 450nm on a microtitre platereader.

ATase [2] = test: Inactivation of ATase in mammalian cells, summary over cell lines; type: cell-based; settings: range over the cell lines of Table 5 (table head: µM; no unit in the sentence); read-out: I50 values for ATase inactivation in human, rat and Chinese hamster cells
Procedure: Mammalian cells were cultured under standard conditions. For example, Raji (a human lymphoblastoid cell line from a Burkitt's lymphoma) cells were grown in suspension culture in RPMI medium supplemented with 10% horse serum. […]
Cells were diluted to 10^6/ml in culture medium containing either the appropriate concentration of inactivator or an equivalent volume of vehicle (DMSO). […] ATase activity was determined as described above, in duplicate sonicated cell extracts and expressed as the percentage activity remaining based on that present in the untreated controls (for example 350-450 fm/mg in Raji cells).

ATase [3] = biological target: T1, ATase (Rattus norvegicus, UniProt P24528); test: Inactivation of ATase activity in Yoshida cells; type: cell-based
T1 construct: endogenous in cells; host or cells: Yoshida
T1 sequence (P24528 1-209): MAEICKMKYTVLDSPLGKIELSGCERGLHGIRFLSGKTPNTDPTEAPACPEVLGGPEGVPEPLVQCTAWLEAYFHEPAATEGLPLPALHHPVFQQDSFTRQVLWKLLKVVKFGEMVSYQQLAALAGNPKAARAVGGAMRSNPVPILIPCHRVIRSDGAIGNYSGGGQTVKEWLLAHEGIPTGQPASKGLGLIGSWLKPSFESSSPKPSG
Procedure: (§2) Mammalian cells were cultured under standard conditions. For example, Raji (a human lymphoblastoid cell line from a Burkitt's lymphoma) cells were grown in suspension culture in RPMI medium supplemented with 10% horse serum. A375M cells are human melanoma cells from which the xenografts described below were established following subcutaneous injection into nude mice: WiDr cells are a human colon carcinoma cell line: Hamster+120 cells are a mitozolomide-selected subline of a Chinese hamster lung fibroblast V79 cell line called RJKO: Yoshida cells are a rat carcinosarcoma cell line and YRbus is a busulphan resistant subline thereof: XP cells are an SV40-transformed fibroblast cell line originally from the skin of a Xeroderma pigmentosum patient, pHMGhAT2b cells are a clone of these cells that have been transfected with a mammalian cell expression vector containing the human ATase cDNA and pHMGla cells are a clone that have been transfected with the expression vector only (i.e. one not containing the human ATase cDNA). Cell pellets were resuspended in cold (4°C) buffer I containing 2 µg/ml leupeptin and sonicated for 10 seconds at 12 µ peak to peak distance. After cooling in ice, the cells were sonicated for a further 10 seconds at 18 µ. Immediately after sonication, 0.01 volumes of 8.7 mg/ml phenylmethanesulphonylfluoride in ethanol was added and the sonicates centrifuged at 15 000 g for 10 minutes at 4°C to pellet cell debris. The supernatant was kept for determination of ATase activity (see below).
Cells were diluted to 10^6/ml in culture medium containing either the appropriate concentration of inactivator or an equivalent volume of vehicle (DMSO). Following incubation at 37°C for 2 hours the cells were harvested by centrifugation, washed twice with PBS and the resulting cell pellets (between 1-2 x 10^7 per pellet) stored at -20°C. ATase activity was determined as described above, in duplicate sonicated cell extracts and expressed as the percentage activity remaining based on that present in the untreated controls (for example 350-450 fm/mg in Raji cells).

ATase [4] = biological target: T2, ATase (Homo sapiens, UniProt P16455); test: Inactivation of ATase activity in XP cells; type: cell-based; parameters: endogenous in cells; host or cells: Raji
T2 sequence (P16455 1-207): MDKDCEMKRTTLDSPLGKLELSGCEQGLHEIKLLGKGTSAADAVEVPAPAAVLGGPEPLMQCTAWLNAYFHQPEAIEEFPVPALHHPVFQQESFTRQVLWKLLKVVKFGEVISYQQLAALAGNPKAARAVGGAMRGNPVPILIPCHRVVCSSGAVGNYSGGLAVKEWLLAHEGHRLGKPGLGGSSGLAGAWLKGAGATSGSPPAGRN
Procedure: as §2, with “Immediately after sonication, 0.01 volumes of 8.7 mg/ml phenylmethanesulphonylfluoride in ethanol was added and the sonicates centrifuged at 15 000 g for 10 minutes at 4°C to pellet cell debris. The supernatant was kept for determination of ATase activity (see below).” left out

ATase [5] = biological target: T2, ATase; test: Inactivation of ATase activity in Raji cells; type: cell-based; parameters: endogenous in cells; host or cells: Raji
Procedure: as §2
Cells were diluted to 10^6/ml in culture medium containing either the appropriate concentration of inactivator or an equivalent volume of vehicle (DMSO). Following incubation at 37°C for 2 hours the cells were harvested by centrifugation, washed twice with PBS and the resulting cell pellets (between 1-2 x 10^7 per pellet) stored at -20°C.

XP cells = test: Growth inhibition of Xeroderma pigmentosum cells by inactivator alone; type: cell-based, human; settings: inactivator alone, Figure 6, compared with V79 cells, in words
Procedure: as §1

[6] = as above; type: cell-based, human; settings: human, xeroderma pigmentosum cells; Figs 5 & 6; read-out: toxic concentrations in XP cells relative to those at which sensitization to BCNU was observed
Procedure: as §1

SMILES | A375M sensitization (D50.^C/D50.^I) 0.5uM (A375M cells) | A375M sensitization (D50.^C/D50.^I) 5.0uM (A375M cells) | toxic concentrations in V79 cells relative to those at which sensitization to BCNU was observed ([1]; Figs 5 & 6) | Raji sensitization (D90.^C/D90.^I) 1.0µM (Raji cells) | Raji sensitization (D90.^C/D90.^I) O.1µM (Raji cells) | IC50 (ATase [2]) [µM] | IC50 (ATase [3]; Rat Yoshida cells, 2 hours at 37°C, read-out: Inactivation of ATase in Mammalian Cells I50(µM) Rat Yoshida) [µM] | IC50 (ATase [4]; Human XP cells, 2 hours at 37°C, read-out: Inactivation of ATase in Mammalian Cells I50(µM) Human XP) [µM] | IC50 (ATase [5]) [µM] | IC50 (ATase [5]; Human Raji cells, 2 hours at 37°C (Table 5), read-out: Inactivation of ATase in Mammalian Cells I50(µM) Human Raji) [µM] | susceptibility of XP cells to the growth inhibitory effects of the inactivator (XP cells) | selectivity ratio [6] | A375M sensitization (D50.^C/D50.^I) 1.0uM (A375M cells; inactivator 1.0uM 2 hours before) | doses producing some growth inhibition of V79 cells ([1]; inactivator alone, up to 600µM, 2h at 37°, Figure 5) | sensitizing Raji cells to the growth inhibitory effects of BCNU, compared with BeG (Raji cells; 0.1uM inactivator) | sensitizing Raji cells to the growth inhibitory effects of BCNU, compared with BeG (Raji cells; 1.0uM inactivator) | IC50 (ATase [3]) [µM] | IC50 (ATase [4]) [µM] | IC50 (ATase [5]; read-out: Inactivation of ATase in Mammalian Cells I50(µM) Human Raji, Human Raji cells, 2 hours at 37°C (Table 5)) [µM]
Nc1nc(OCc2ccco2)c2nc[nH]c2n1 [B.4203, O^6-furfurylguanine] | 2.0 | 2.5 | at least 100 times | 5.7 | 2.6 | 0.04 to 0.12 | 0.06 | 0.06 | 0.04 | 0.04 | as susceptible | ≥ 100 |  |  |  |  |  |  | 
Nc1nc(OCc2cccs2)c2nc[nH]c2n1 [B.4205, O^6-thenylguanine] | 2.8 | 3.5 |  | 8.0 | 8.4 | 0.02 to 0.03 |  |  | 0.02 |  | more sensitive than V79 cells | ≥ 100 | 2.3 | no such effects were seen | more effective than BeG | equally effective | 0.02 | 0.03 | 0.02
